Laboratory results reported in ChEMBL document CHEMBL5108031, “Novel N-(4-thiocyanatophenyl)-1H-1,2,3-triazole-4-carboxamides exhibit selective cytotoxic activity at nanomolar doses towards human leukemic T-cells” (Eur J Med Chem, 2022).

Experiments:
[1] = target: Heat shock protein HSP 90-alpha (Homo sapiens, UniProt P07900); test: Inhibition of Hsp90alpha (unknown origin)
[2] = tested on: DNA; test: Binding affinity to DNA (unknown origin) assessed as DNA intercalation at 1 ug/ml by measuring amount of methyl green dye replaced from DNA-methyl green complex; assay type: nucleic-acid assay; settings: Homo sapiens; dose 1.0 µg/ml
[3] = tested on: DNA; test: Binding affinity to DNA (unknown origin) assessed as DNA intercalation at 10 ug/ml by measuring amount of methyl green dye replaced from DNA-methyl green complex; assay type: nucleic-acid assay; settings: Homo sapiens; dose 10.0 µg/ml
[4] = tested on: SNB-75; test: Antiproliferative activity against human SNB-75 cells; assay type: functional
[5] = tested on: HOP-92; test: Antiproliferative activity against human HOP-92 cells; assay type: functional
[6] = tested on: HeLa; test: Antiproliferative activity against human HeLa cells incubated for 72 hrs and measured by MTT assay; assay type: functional
[7] = tested on: HCT-116; test: Antiproliferative activity against human HCT-116 cells incubated for 72 hrs and measured by MTT assay; assay type: functional
[8] = tested on: HEK293; test: Antiproliferative activity against human HEK293 cells incubated for 72 hrs and measured by MTT assay; assay type: functional
[9] = tested on: MDA-MB-231; test: Antiproliferative activity against human MDA-MB-231 cells incubated for 72 hrs and measured by MTT assay; assay type: functional
[10] = tested on: THP-1; test: Antiproliferative activity against human THP-1 cells incubated for 72 hrs and measured by MTT assay; assay type: functional
[11] = tested on: BALB/3T3; test: Antiproliferative activity against mouse BALB/3T3 cells incubated for 72 hrs and measured by MTT assay; assay type: functional
[12] = tested on: WM793; test: Antiproliferative activity against human WM793 cells incubated for 72 hrs and measured by MTT assay; assay type: functional
[13] = tested on: KB 3-1; test: Antiproliferative activity against human KB 3-1 cells incubated for 72 hrs and measured by MTT assay; assay type: functional
[14] = tested on: SK-OV-3; test: Antiproliferative activity against human SK-OV-3 cells incubated for 72 hrs and measured by MTT assay; assay type: functional
[15] = tested on: K562; test: Antiproliferative activity against human K562 cells incubated for 72 hrs and measured by MTT assay; assay type: functional
[16] = tested on: HaCaT; test: Antiproliferative activity against human HaCaT cells incubated for 72 hrs and measured by MTT assay; assay type: functional
[17] = tested on: HCT-116; test: Antiproliferative activity against p53-deficient human HCT-116 cells incubated for 72 hrs and measured by MTT assay; assay type: functional
[18] = tested on: MCF7; test: Antiproliferative activity against human MCF7 cells incubated for 72 hrs and measured by MTT assay; assay type: functional
[19] = tested on: Jurkat; test: Antiproliferative activity against human Jurkat cells incubated for 72 hrs and measured by MTT assay; assay type: functional
[20] = tested on: A549; test: Antiproliferative activity against human A549 cells incubated for 72 hrs and measured by MTT assay; assay type: functional

Work on CCNC(=O)c1nnn(-c2cc(C(C)C)c(O)cc2O)c1-c1ccc(CN2CCOCC2)cc1 yielded an IC50 [1] of less than 0.005 µM.
Compound CC[n+]1c(-c2ccccc2)c2cc(N)ccc2c2ccc(N)cc21 has an Activity [2] of 24.7% and an Activity [3] of 46.6%.
Cc1ccc(-n2nnc(C(=O)Nc3cc(Cl)ccc3Cl)c2N)cc1 showed a GI50 [4] of 0.58 µM, a TGI [4] of 5.9 µM and a GI50 [5] of 0.58 µM. The TGI [5] was 5.9 µM.
COc1cccc(-n2nnc(C(=O)Nc3ccc(SC#N)cc3)c2C)c1 gave a GI50 [6] greater than 100 µM, a GI50 [7] greater than 100 µM and a GI50 [8] greater than 100 µM. For the same compound, the GI50 [9] was greater than 100 µM, the GI50 [10] was greater than 100 µM and the GI50 [11] was greater than 100 µM. The GI50 [12] was greater than 100 µM, the GI50 [13] was greater than 100 µM and the GI50 [14] was 64.6 µM. For the same compound, the GI50 [15] was 84.5 µM, the GI50 [16] was greater than 100 µM and the GI50 [17] was 39.8 µM. The GI50 [18] was greater than 100 µM, the GI50 [19] was greater than 100 µM and the GI50 [20] was greater than 100 µM.
In the case of Cc1ccc(Cl)c(-n2nnc(C(=O)Nc3ccc(SC#N)cc3)c2C)c1, the GI50 [6] is reported as greater than 100 µM, the GI50 [7] is reported as greater than 100 µM and the GI50 [8] is reported as greater than 100 µM. The GI50 [9] was greater than 100 µM, the GI50 [10] was greater than 100 µM and the GI50 [11] was 100 µM. For the same compound, the GI50 [12] was greater than 100 µM, the GI50 [13] was 68 µM and the GI50 [14] was 9.6 µM. It also gave a GI50 [15] of 6.6 µM, a GI50 [16] greater than 100 µM and a GI50 [17] greater than 100 µM. It also gave a GI50 [18] greater than 100 µM, a GI50 [19] of 66.3 µM and a GI50 [20] greater than 100 µM.
In the case of COCc1c(C(=O)Nc2ccc(SC#N)cc2)nnn1-c1ccc(C)cc1, the GI50 [6] is reported as greater than 100 µM, the GI50 [7] is reported as 81.2 µM and the GI50 [8] is reported as greater than 100 µM. For the same compound, the GI50 [9] was greater than 100 µM, the GI50 [10] was greater than 100 µM and the GI50 [11] was 75.7 µM. It also gave a GI50 [12] of 93.3 µM, a GI50 [13] of 53.6 µM and a GI50 [14] of 46.4 µM. The GI50 [15] was 42.5 µM, the GI50 [16] was greater than 100 µM and the GI50 [17] was 21.7 µM. For the same compound, the GI50 [18] was greater than 100 µM, the GI50 [19] was 4.46 µM and the GI50 [20] was greater than 100 µM.
